These results are taken from patent US20220324865A1 (Bayer Aktiengesellschaft, priority 2018, published 2022).

Where a name gives a salt, the structure may show the parent alone.

The target of the experiment is T1, human EP3 receptor (Homo sapiens, UniProt P43115).
T1 construct: expressed in transfected cells; host or cells: CHO K1 (Chinese Hamster Ovary), stably co-transfected with Galpha16 and mitochondrial clytin
T1 sequence (P43115 1-390): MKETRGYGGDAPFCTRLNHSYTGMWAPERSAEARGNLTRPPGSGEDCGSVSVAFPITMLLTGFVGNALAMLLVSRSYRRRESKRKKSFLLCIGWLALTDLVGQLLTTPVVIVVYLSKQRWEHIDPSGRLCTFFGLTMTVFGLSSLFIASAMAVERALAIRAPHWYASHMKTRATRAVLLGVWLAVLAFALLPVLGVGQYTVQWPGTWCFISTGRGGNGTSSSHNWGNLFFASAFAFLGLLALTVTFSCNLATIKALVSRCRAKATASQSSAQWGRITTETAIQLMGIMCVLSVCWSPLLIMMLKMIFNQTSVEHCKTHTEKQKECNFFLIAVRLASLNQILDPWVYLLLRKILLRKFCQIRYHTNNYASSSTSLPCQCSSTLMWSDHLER
As to the kind of experiment: Cellular in vitro assay for determining EP3 receptor activity (human EP3 cell line, sulprostone-stimulated calcium luminescence). It is filed as cell-based. As to conditions: CHO cells expressing human EP3 and mitochondrial Clytin; antagonist mode, sulprostone at EC50; read-out: EP3 CHO mtCLY ANTAG IC50. The method in brief:
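CHO K1 cells stably expressing human EP3 with Gα16 and mitochondrial Clytin, loaded overnight with coelenterazine. Compounds added 10 min before sulprostone at its EC50; antagonism read immediately as reduced calcium-driven luminescence, quadruplicate points.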
What is called IC50 is the concentration needed to halve the response being measured. For `COc1ccc(CNC(=O)c2cc3c(=O)[nH]c(-c4ccc(C)c(Cl)c4)c(C)n3n2)cc1OC` [Example 1-129, 6-(3-Chloro-4-methylphenyl)-N-(3,4-dimethoxybenzyl)-7-methyl-4-oxo-4,5-dihydropyrazolo-[1,5-a]pyrazine-2-carboxamide], the IC50 amounted to 7.82 nM.

For `Cc1ccc(-c2[nH]c(=O)c3c(C(F)(F)F)c(C(=O)NCCn4ccc(C5CC5)n4)nn3c2C)cc1C` [Example 1-130, N-[2-(3-Cyclopropyl-1H-pyrazol-1-yl)ethyl]-6-(3,4-dimethylphenyl)-7-methyl-4-oxo-3-(trifluoromethyl)-4,5-dihydropyrazolo[1,5-a]pyrazine-2-carboxamide], the IC50 was determined as 2.55 nM.

As for `Cc1cc(-c2cn3nc(C(=O)N[C@H](C)c4ccc(F)cc4)c(C4CC4)c3c(=O)[nH]2)ccc1C(F)(F)F` [Example 1-131, 3-Cyclopropyl-N-[(1R)-1-(4-fluorophenyl)ethyl]-6-[3-methyl-4-(trifluoromethyl)phenyl]-4-oxo-4,5-dihydropyrazolo[1,5-a]pyrazine-2-carboxamide], the IC50 turned out to be 5.45 nM.

Regarding `Cc1cc(-c2cn3nc(C(=O)N[C@@H](c4ccc(F)cc4)C(C)(C)O)c(C4CC4)c3c(=O)[nH]2)ccc1C(F)(F)F` [Example 1-132, 3-Cyclopropyl-N-[(1S)-1-(4-fluorophenyl)-2-hydroxy-2-methylpropyl]-6-[3-methyl-4-(trifluoromethyl)phenyl]-4-oxo-4,5-dihydropyrazolo[1,5-a]pyrazine-2-carboxamide], the IC50 is 4.05 nM.

As for `CC(C)(O)[C@@H](NC(=O)c1cc2c(=O)[nH]c(-c3ccc4c(c3)CCCC4)cn2n1)c1ccc(F)cc1` [Example 1-133, N-[(1S)-1-(4-Fluorophenyl)-2-hydroxy-2-methylpropyl]-4-oxo-6-(5,6,7,8-tetrahydronaphthalen-2-yl)-4,5-dihydropyrazolo[1,5-a]pyrazine-2-carboxamide], the IC50 was 2.8 nM.

For the compound `CC(C)(O)[C@@H](NC(=O)c1cc2c(=O)[nH]c(-c3ccc4c(c3)CCC4)cn2n1)c1ccc(F)cc1` [Example 1-134, 6-(2,3-Dihydro-1H-inden-5-yl)-N-[(1S)-1-(4-fluorophenyl)-2-hydroxy-2-methylpropyl]-4-oxo-4,5-dihydropyrazolo[1,5-a]pyrazine-2-carboxamide], the IC50 is 5.75 nM.

On to `Cc1ccc(-c2cn3nc(C(=O)N[C@@H](c4ccc(F)cc4)C(C)(C)O)c(C(C)C)c3c(=O)[nH]2)cc1C` [Example 1-135, 6-(3,4-Dimethylphenyl)-N-[(1S)-1-(4-fluorophenyl)-2-hydroxy-2-methylpropyl]-4-oxo-3-(propan-2-yl)-4,5-dihydropyrazolo[1,5-a]pyrazine-2-carboxamide], for which the half-inhibitory concentration (IC50) turned out to be 5.8 nM.

On to `CC(NC(=O)c1cc2c(=O)[nH]c(-c3ccc4ccccc4c3)cn2n1)c1ccc(O)cc1` (centres unmarked) [Example 1-136, N-[1-(4-Hydroxphenyl)ethyl]-6-(2-naphthyl)-4-oxo-5H-pyrazolo[1,5-a]pyrazine-2-carboxamide], for which the concentration for half-maximal inhibition (IC50) is 5.8 nM.

On to `Cc1ccc(-c2cn3nc(C(=O)NC(C)c4ccc(O)cc4)cc3c(=O)[nH]2)cc1C` (centres unmarked) [Example 1-137, 6-(3,4-Dimethylphenyl)-N-[1-(4-hydroxphenyl)ethyl]-4-oxo-5H-pyrazolo[1,5-a]pyrazine-2-carboxamide], for which the IC50 came out at 2.9 nM.

In the case of `CC[C@@H](C)NC(=O)c1nn2cc(-c3ccc(C(F)(F)F)c(C)c3)[nH]c(=O)c2c1C1CC1` [Example 1-138, N-[(2R)-Butan-2-yl]-3-cyclopropyl-6-[3-methyl-4-(trifluoromethyl)phenyl]-4-oxo-4,5-dihydropyrazolo[1,5-a]pyrazine-2-carboxamide], the IC50 came out at 6.85 nM.

As for `Cc1cc(-c2cn3nc(C(=O)N[C@H](C)C(C)C)c(C4CC4)c3c(=O)[nH]2)ccc1C(F)(F)F` [Example 1-139, 3-Cyclopropyl-N-[(2R)-3-methylbutan-2-yl]-6-[3-methyl-4-(trifluoromethyl)phenyl]-4-oxo-4,5-dihydropyrazolo[1,5-a]pyrazine-2-carboxamide], the IC50 was found to be 7.55 nM.

Turning to `CC[C@@H](C)NC(=O)c1nn2cc(-c3ccc(C)c(C)c3)[nH]c(=O)c2c1C(C)C` [Example 1-140, N-[(2R)-Butan-2-yl]-6-(3,4-dimethylphenyl)-4-oxo-3-(propan-2-yl)-4,5-dihydropyrazolo[1,5-a]-pyrazine-2-carboxamide], the IC50 turned out to be 1.95 nM.

Turning to `Cc1ccc(-c2cn3nc(C(=O)N[C@H](C)C(C)C)c(C(C)C)c3c(=O)[nH]2)cc1C` [Example 1-141, 6-(3,4-Dimethylphenyl)-N-[(2R)-3-methylbutan-2-yl]-4-oxo-3-(propan-2-yl)-4,5-dihydropyrazolo-[1,5-a]pyrazine-2-carboxamide], the 50% inhibitory concentration (IC50) worked out at 1.7 nM.

For the compound `CC[C@@H](C)NC(=O)c1nn2cc(-c3ccc(C)c(C)c3)[nH]c(=O)c2c1C1CC1` [Example 1-142, N-[(2R)-Butan-2-yl]-3-cyclopropyl-6-(3,4-dimethylphenyl)-4-oxo-4,5-dihydropyrazolo[1,5-a]-pyrazine-2-carboxamide], the half-inhibitory concentration (IC50) was found to be 1.16 nM.

Regarding `Cc1ccc(-c2cn3nc(C(=O)N[C@H](C)C(C)C)c(C4CC4)c3c(=O)[nH]2)cc1C` [Example 1-143, 3-Cyclopropyl-6-(3,4-dimethylphenyl)-N-[(2R)-3-methylbutan-2-yl]-4-oxo-4,5-dihydropyrazolo-[1,5-a]pyrazine-2-carboxamide], the IC50 was determined as 1.5 nM.

For `O=C(N[C@H](CCO)c1ccc(F)cc1)c1nn2cc(-c3ccc4ccccc4c3)[nH]c(=O)c2c1C1CC1` [Example 1-144, 3-Cyclopropyl-N-[(1R)-1-(4-fluorophenyl)-3-hydroxypropyl]-6-(naphthalen-2-yl)-4-oxo-4,5-dihydropyrazolo[1,5-a]pyrazine-2-carboxamide], the IC50 was 3.05 nM.

As for `CCN1CC(NC(=O)c2cc3c(=O)[nH]c(-c4ccc5ccccc5c4)cn3n2)(c2ccc(F)cc2)C1` [Example 1-145, N-[3-(4-Fluorophenyl)-1-ethylazetidin-3-yl]-6-(naphthalen-2-yl)-4-oxo-4,5-dihydropyrazolo[1,5-a]-pyrazine-2-carboxamide formic acid salt], the IC50 came out at 7.05 nM.

Take `CC(=O)N1CC(NC(=O)c2cc3c(=O)[nH]c(-c4ccc5ccccc5c4)cn3n2)(c2ccc(F)cc2)C1` [Example 1-146, N-[1-Acetyl-3-(4-fluorophenyl)azetidin-3-yl]-6-(2-naphthyl)-4-oxo-5H-pyrazolo[1,5-a]pyrazine-2-carboxamide]: the IC50 turned out to be 4.5 nM.

`Cc1ccc(-c2cn3nc(C(=O)N[C@@H](c4ccc(F)cc4)C(C)(C)O)c(C(F)(F)F)c3c(=O)[nH]2)cc1F` [Example 1-147, 6-(3-Fluoro-4-methylphenyl)-N-[(15)-1-(4-fluorophenyl)-2-hydroxy-2-methylpropyl]-4-oxo-3-(trifluoromethyl)-4,5-dihydropyrazolo[1,5-a]pyrazine-2-carboxamide]: the IC50 came out at 2.9 nM.

On to `Cc1ccc(-c2cn3nc(C(=O)N[C@@H](c4ccc(F)cc4)C(C)(C)O)c(C)c3c(=O)[nH]2)cc1Cl` [Example 1-148, 6-(3-Chloro-4-methylphenyl)-N-[(1S)-1-(4-fluorophenyl)-2-hydroxy-2-methylpropyl]-3-methyl-4-oxo-4,5-dihydropyrazolo[1,5-a]pyrazine-2-carboxamide], for which the IC50 is 1.33 nM.

Consider `CC[C@@H](C)NC(=O)c1nn2cc(-c3ccc(C)c(Cl)c3)[nH]c(=O)c2c1C` [Example 1-149, N-[(2R)-Butan-2-yl]-6-(3-chloro-4-methylphenyl)-3-methyl-4-oxo-4,5-dihydropyrazolo[1,5-a]-pyrazine-2-carboxamide], for which the IC50 is 2.33 nM.

For the compound `Cc1ccc(-c2cn3nc(C(=O)NC4(c5ccc(F)cc5)CN(C)C4)c(C)c3c(=O)[nH]2)cc1Cl` [Example 1-150, 6-(3-Chloro-4-methylphenyl)-N-[3-(4-fluorophenyl)-1-methylazetidin-3-yl]-3-methyl-4-oxo-4,5-dihydropyrazolo[1,5-a]pyrazine-2-carboxamide], the IC50 is 7.23 nM.

As for `Cc1ccc(-c2cn3nc(C(=O)N[C@@H](c4ccc(F)cc4)C(C)(C)O)c(C(F)(F)F)c3c(=O)[nH]2)cc1Cl` [Example 1-151, 6-(3-Chloro-4-methylphenyl)-N-[(1S)-1-(4-fluorophenyl)-2-hydroxy-2-methylpropyl]-4-oxo-3-(trifluoromethyl)-4,5-dihydropyrazolo[1,5-a]pyrazine-2-carboxamide], the IC50 is 1.15 nM.

For `CC[C@@H](C)NC(=O)c1nn2cc(-c3ccc(C)c(Cl)c3)[nH]c(=O)c2c1C(F)(F)F` [Example 1-152, N-[(2R)-Butan-2-yl]-6-(3-chloro-4-methylphenyl)-4-oxo-3-(trifluoromethyl)-4,5-dihydropyrazolo-[1,5-a]pyrazine-2-carboxamide], the IC50 was 2.1 nM.

Turning to `Cc1ccc(-c2cn3nc(C(=O)NC4(c5ccc(F)cc5)CN(C)C4)c(C(F)(F)F)c3c(=O)[nH]2)cc1Cl` [Example 1-153, 6-(3-Chloro-4-methylphenyl)-N-[3-(4-fluorophenyl)-1-methylazetidin-3-yl]-4-oxo-3-(trifluoromethyl)-4,5-dihydropyrazolo[1,5-a]pyrazine-2-carboxamide], the IC50 was 5.4 nM.

For `Cc1ccc(-c2cn3nc(C(=O)N[C@H](C)CO)c(C4CC4)c3c(=O)[nH]2)cc1C` [Example 1-154, 3-Cyclopropyl-6-(3,4-dimethylphenyl)-N-[(2R)-1-hydroxpropan-2-yl]-4-oxo-4,5-dihydropyrazolo-[1,5-a]pyrazine-2-carboxamide], the IC50 is 2.6 nM.
